From patent US20250122218A1, “MODULATORS OF CYSTIC FIBROSIS TRANSMEMBRANE CONDUCTANCE REGULATOR” (Vertex Pharmaceuticals Incorporated, priority 2022, published 2025) come the findings set out here.

pEC50: −log10 of the molar value.

For this experiment, the target named is T1, CFTR in F508del/MF-HBE cells (Homo sapiens, UniProt P13569, DEL508-508).
T1 construct: human bronchial epithelial (HBE) cells derived from CF subjects heterozygous for F508del and a minimal function CFTR mutation; endogenous in cells; host or cells: primary human bronchial epithelial cells from CF subjects (F508del/MF-HBE)
T1 sequence (P13569 with tags, fused parts or gaps DEL508-508): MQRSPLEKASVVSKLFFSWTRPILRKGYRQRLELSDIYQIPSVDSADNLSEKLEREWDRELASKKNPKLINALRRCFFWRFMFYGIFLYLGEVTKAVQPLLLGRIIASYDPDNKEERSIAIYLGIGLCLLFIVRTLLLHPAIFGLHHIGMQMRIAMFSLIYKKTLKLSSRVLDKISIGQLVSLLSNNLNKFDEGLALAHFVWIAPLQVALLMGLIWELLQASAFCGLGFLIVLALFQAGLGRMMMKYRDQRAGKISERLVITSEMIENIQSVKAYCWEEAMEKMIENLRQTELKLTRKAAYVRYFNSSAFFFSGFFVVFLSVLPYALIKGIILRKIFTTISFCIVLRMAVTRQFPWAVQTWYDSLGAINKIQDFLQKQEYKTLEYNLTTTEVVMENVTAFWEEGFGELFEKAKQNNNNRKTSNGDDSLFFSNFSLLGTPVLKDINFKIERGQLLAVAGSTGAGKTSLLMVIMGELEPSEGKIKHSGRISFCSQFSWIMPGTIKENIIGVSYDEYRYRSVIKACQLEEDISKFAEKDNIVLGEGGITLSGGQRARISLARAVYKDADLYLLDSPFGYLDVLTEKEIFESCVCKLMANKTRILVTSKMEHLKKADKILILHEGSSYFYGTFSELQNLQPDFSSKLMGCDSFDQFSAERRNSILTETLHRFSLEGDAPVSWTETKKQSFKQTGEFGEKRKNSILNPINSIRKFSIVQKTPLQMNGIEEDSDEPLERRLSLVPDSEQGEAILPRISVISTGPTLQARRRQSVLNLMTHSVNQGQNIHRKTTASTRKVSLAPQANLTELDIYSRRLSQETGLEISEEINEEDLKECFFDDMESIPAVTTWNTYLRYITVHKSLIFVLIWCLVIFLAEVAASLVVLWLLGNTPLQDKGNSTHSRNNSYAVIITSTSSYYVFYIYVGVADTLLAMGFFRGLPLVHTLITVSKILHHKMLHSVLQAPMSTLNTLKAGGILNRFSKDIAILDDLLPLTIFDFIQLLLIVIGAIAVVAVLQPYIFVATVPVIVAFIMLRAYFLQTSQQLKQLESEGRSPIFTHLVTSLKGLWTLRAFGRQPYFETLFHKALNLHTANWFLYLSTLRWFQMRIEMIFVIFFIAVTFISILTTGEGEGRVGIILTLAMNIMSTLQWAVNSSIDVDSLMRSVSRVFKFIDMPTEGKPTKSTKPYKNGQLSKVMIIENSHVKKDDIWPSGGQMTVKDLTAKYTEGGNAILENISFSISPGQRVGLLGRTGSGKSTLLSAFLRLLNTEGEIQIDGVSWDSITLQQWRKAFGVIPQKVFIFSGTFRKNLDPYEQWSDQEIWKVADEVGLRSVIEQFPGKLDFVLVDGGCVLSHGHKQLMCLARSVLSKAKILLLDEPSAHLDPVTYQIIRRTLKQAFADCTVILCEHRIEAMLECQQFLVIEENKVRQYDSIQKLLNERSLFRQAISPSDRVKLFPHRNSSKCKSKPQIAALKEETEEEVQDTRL
Kind of experiment: Ussing chamber assay of CFTR-mediated short-circuit currents (identification of potentiator compounds). The experiment is classed as cell-based. Particulars: potentiator incubated 18-24 hours at 37° C. in combination with 10 μM corrector, in the presence of 20% human serum, CFTR-mediated ISC. How it is done:
Ussing chamber experiments were performed using human bronchial epithelial (HBE) cells derived from CF subjects heterozygous for F508del and a minimal function CFTR mutation (F508del/MF-HBE) and cultured as previously described (Neuberger T, Burton B, Clark H, Van Goor F; Methods Mol. Biol. 2011:741:39-54). After four days the apical media was removed, and the cells were grown at an air liquid interface for >14 days prior to use.
To isolate the CFTR-mediated short-circuit (ISC) current, F508del/MF-HBE grown on Costar® Snapwell™ cell culture inserts were mounted in an Ussing chamber and the transepithelial ISC was measured under voltage-clamp recording conditions (Vhold=0 mV) at 37° C. The basolateral solution contained (in mM) 145 NaCl, 0.83 K2HPO4, 3.3 KH2PO4, 1.2 MgCl2, 1.2 CaCl2), 10 Glucose, 10 HEPES (pH adjusted to 7.4 with NaOH) and the apical solution contained (in mM) 145 NaGluconate, 1.2 MgCl2, 1.2 CaCl2), 10 glucose, 10 HEPES (pH adjusted to 7.4 with NaOH) and 30 μM amiloride to block the epithelial sodium channel. Forskolin (20 μM) was added to the apical surface to activate CFTR, followed by apical addition of a CFTR inhibitor cocktail consisting of BPO, GlyH-101 and CFTR inhibitor 172 (each at 20 μM final assay concentration) to specifically isolate CFTR currents. The CFTR-mediated ISC (μA/cm^2) for each condition was determined from the peak forskolin response to the steady-state current following inhibition.
The activity of the CFTR potentiator compounds on the CFTR-mediated ISC was determined in Ussing chamber studies as described above. The F508del/MF-HBE cell cultures were incubated with the potentiator compounds at a range of concentrations in combination with 10 μM (14S)-8-[3-(2-{dispiro[2.0.2.1]heptan-7-yl}ethoxy)-1H-pyrazol-1-yl]-12,12-dimethyl-2λ^6-thia-3,9,11,18,23-pentaazatetracyclo[17.3.1.111,14.05,10]tetracosa-1(22),5,7,9,19(23),20-hexaene-2,2,4-trione for 18-24 hours at 37° C. and in the presence of 20% human serum. The concentration of potentiator compounds and (14S)-8-[3-(2-{dispiro[2.0.2.1]heptan-7-yl}ethoxy)-1H-pyrazol-1-yl]-12,12-dimethyl-2λ^6-thia-3,9,11,18,23-pentaazatetracyclo[17.3.1.111,14.05,10]tetracosa-1(22),5,7,9,19(23),20-hexaene-2,2,4-trione used during the 18-24 hours incubations was kept constant throughout the Ussing chamber measurement of the CFTR-mediated ISC to ensure compounds were present throughout the entire experiment. The efficacy and potency of the putative F508del potentiators was compared to that of the known potentiator, ivacaftor (N-[2,4-bis(1,1-dimethylethyl)-5-hydroxyphenyl]-1,4-dihydro-4-oxoquinoline-3-carboxamide).
What is called pEC50 is the negative decadic logarithm of the EC50, by convention in mol/L. `Nc1cc(C(F)(F)F)c2nc1-c1nnc(o1)C(O)(C(F)(F)F)c1cc(ccc1F)C=CCCC2=O` (single isomer, unassigned) [Compound 59, 20-amino-8-fluoro-6-hydroxy-6,18-bis(trifluoromethyl)-23-oxa-3,4,21-triazatetracyclo[15.3.1.12,5.17,11]tricosa-1(21),2,4,7(22),8,10,12,17,19-nonaen-16-one]: the pEC50 is less than 6.00.
The result for `Nc1cc(C(F)(F)F)c2nc1-c1nnc(o1)C(O)(C(F)(F)F)c1cc(ccc1F)C=CCCC2=O` (single isomer, unassigned) [Compound 60, 20-amino-8-fluoro-6-hydroxy-6,18-bis(trifluoromethyl)-23-oxa-3,4,21-triazatetracyclo[15.3.1.12,5.17,11]tricosa-1(21),2,4,7(22),8,10,12,17,19-nonaen-16-one] reads greater than 6.30; that for `N#CC1CCCCc2ccc(F)c(c2)C(O)(C(F)(F)F)C2=NN=C(O2)c2nc1c(C(F)(F)F)cc2N` (single isomer, unassigned) [Compound 67, 20-amino-8-fluoro-6-hydroxy-6,18-bis(trifluoromethyl)-23-oxa-3,4,21-triazatetracyclo[15.3.1.12,5.17,11]tricosa-1(21),2,4,7,9,11(22),17,19-octaene-16-carbonitrile], greater than 6.30; that for `N#CC1CCCCc2ccc(F)c(c2)C(O)(C(F)(F)F)C2=NN=C(O2)c2nc1c(C(F)(F)F)cc2N` (single isomer, unassigned) [Compound 68, 20-amino-8-fluoro-6-hydroxy-6,18-bis(trifluoromethyl)-23-oxa-3,4,21-triazatetracyclo[15.3.1.12,5.17,11]tricosa-1(21),2,4,7,9,11(22),17,19-octaene-16-carbonitrile], greater than 6.30.
In the case of `Nc1cc(C(F)(F)F)c2nc1-c1nnc(o1)C(F)(C(F)(F)F)CCCCCCC2=O` (single isomer, unassigned) [Compound 71, 17-amino-6-fluoro-6,15-bis(trifluoromethyl)-19-oxa-3,4,18-triazatricyclo[12.3.1.12,5]nonadeca-1(18),2,4,14,16-pentaen-13-one], the pEC50 is less than 6.00.
Take `CN1CCCCCC(O)(C(F)(F)F)C2=NN=C(O2)c2nc(c(C(F)(F)F)cc2N)C1=O` (single isomer, unassigned) [Compound 72, 17-Amino-6-hydroxy-12-methyl-6,15-bis(trifluoromethyl)-19-oxa-3,4,12,18-tetrazatricyclo[12.3.1.12,5]nonadeca-1(18),2,4,14,16-pentaen-13-one]: the pEC50 was greater than 6.30.
As for `CN1CCCCCC(O)(C(F)(F)F)C2=NN=C(O2)c2nc(c(C(F)(F)F)cc2N)C1=O` (single isomer, unassigned) [Compound 73, 17-amino-6-hydroxy-12-methyl-6,15-bis(trifluoromethyl)-19-oxa-3,4,12,18-tetrazatricyclo[12.3.1.12,5]nonadeca-1(18),2,4,14,16-pentaen-13-one], the pEC50 was less than 6.00.
For `Nc1cc(C(F)(F)F)c2nc1-c1nnc(o1)C(O)(C(F)(F)F)CCCCCN(Cc1ccccc1)C2=O` (single isomer, unassigned) [Compound 74, 17-Amino-12-benzyl-6-hydroxy-6,15-bis (trifluoromethyl)-19-oxa-3,4,12,18-tetrazatricyclo [12.3.1.12,5] nonadeca-1(18),2,4,14,1 6-pentaen-13-one], the pEC50 was greater than 6.30.
`Nc1cc(C(F)(F)F)c2nc1-c1nnc(o1)C(O)(C(F)(F)F)CCCCCN(C1CCC1)C2=O` (single isomer, unassigned) [Compound 78, 17-Amino-12-cyclobutyl-6-hydroxy-6,15-bis (trifluoromethyl)-19-oxa-3,4,12,18-tetrazatricyclo [12.3.1.12,5] nonadeca-1(18),2,4,14,1 6-pentaen-13-one]: the pEC50 is greater than 6.30.
As to `CC1(C)CCC2CCCC[C@](O)(C(F)(F)F)C3=NN=C(O3)c3nc(c(C(F)(F)F)cc3N)C(=O)N21` (single isomer, unassigned) [Compound 114], the pEC50 is greater than 6.30.
The result for `CC1(C)CCC2CCCC[C@](O)(C(F)(F)F)C3=NN=C(O3)c3nc(c(C(F)(F)F)cc3N)C(=O)N21` (single isomer, unassigned) [Compound 115] reads greater than 6.30.
The figure for `N#Cc1cc(N)c2nc1C(=O)N(C1CC(F)(F)C1)CCCCCC(O)(C(F)(F)F)C1=NN=C2O1` (single isomer, unassigned) [Compound 197, 17-amino-12-(3,3-difluorocyclobutyl)-6-hydroxy-13-oxo-6-(trifluoromethyl)-19-oxa-3,4,12,18-tetrazatricyclo[12.3.1.12,5]nonadeca-1(18),2,4,14,16-pentaene-15-carbonitrile] is less than 6.00; for `Nc1cc(C(F)(F)F)c2nc1-c1nnc(o1)C(O)(C(F)(F)F)CCCCN(C1CC(F)(F)C1)C2=O` (single isomer, unassigned) [Compound 198, 16-amino-11-(3,3-difluorocyclobutyl)-6-hydroxy-6,14-bis(trifluoromethyl)-18-oxa-3,4,11,17-tetrazatricyclo[11.3.1.12,5]octadeca-1(17),2,4,13,15-pentaen-12-one] it is greater than 6.30.
For the molecule `Nc1cc(C(F)(F)F)c2nc1-c1nnc(o1)C(O)(C(F)(F)F)CCCCN(C1CC(F)(F)C1)C2=O` (single isomer, unassigned) [Compound 199, 16-amino-11-(3,3-difluorocyclobutyl)-6-hydroxy-6,14-bis(trifluoromethyl)-18-oxa-3,4,11,17-tetrazatricyclo[11.3.1.12,5]octadeca-1(17),2,4,13,15-pentaen-12-one], the pEC50 was less than 6.00.
For `Nc1cc(C(F)(F)F)c2nc1-c1nnc(o1)C(O)(C(F)(F)F)c1cc(ccc1F)CCCN(C1CC(F)(F)C1)C2=O` (single isomer, unassigned) [Compound 202, 20-amino-15-(3,3-difluorocyclobutyl)-8-fluoro-6-hydroxy-6,18-bis(trifluoromethyl)-23-oxa-3,4,15,21-tetraazatetracyclo [15.3.1.12,5.17,11] tricosa 1(21),2,4,7(22),8,10, 17,19-octaen-16-one], the pEC50 is greater than 6.30.
The result for `Nc1cc(C(F)(F)F)c2nc1-c1nnc(o1)C(O)(C(F)(F)F)c1cc(ccc1F)CCCN(C1CC(F)(F)C1)C2=O` (single isomer, unassigned) [Compound 203, 20-amino-15-(3,3-difluorocyclobutyl)-8-fluoro-6-hydroxy-6,18-bis(trifluoromethyl)-23-oxa-3,4,15,21-tetraazatetracyclo [15.3.1.12,5.17,11] tricosa 1(21),2,4,7(22),8,10, 17,19-octaen-16-one] reads greater than 6.30.
Regarding `CC(C)N1CCCCCC(O)(C(F)(F)F)C2=NN=C(O2)c2nc(c(C(F)(F)F)cc2N)C1=O` (single isomer, unassigned) [Compound 204, 17-amino-6-hydroxy-12-isopropyl-6,15-bis(trifluoromethyl)-19-oxa-3,4,12,18-tetrazatricyclo [12.3.1.12,5] nonadeca-1(18),2,4,14,16-pentaen-13-one], the pEC50 is greater than 6.30.
In the case of `CC(C)N1CCCCCC(O)(C(F)(F)F)C2=NN=C(O2)c2nc(c(C(F)(F)F)cc2N)C1=O` (single isomer, unassigned) [Compound 205, 17-amino-6-hydroxy-12-isopropyl-6,15-bis(trifluoromethyl)-19-oxa-3,4,12,18-tetrazatricyclo [12.3.1.12,5] nonadeca-1(18),2,4,14,16-pentaen-13-one], the pEC50 is less than 6.00.
As for `Nc1cc(C(F)(F)F)c2nc1-c1nnc(o1)C(O)(C(F)(F)F)CCCCCN(CC(F)(F)F)C2=O` (single isomer, unassigned) [Compound 206, 17-amino-6-hydroxy-12-(2,2,2-trifluoroethyl)-6,15-bis(trifluoromethyl)-19-oxa-3,4,12,18-tetrazatricyclo [12.3.1.12,5] nonadeca-1(18),2,4,14,16-pentaen-13-one], the pEC50 was greater than 6.30.
